Assay results as given in patent publication US20260373138A1, “COMPOUNDS WITH ANTIFUNGAL PROPERTIES” (priority 2023, published 2026).

System: A. fumigatus CEA10 reference strain
Test: Fluconazole potentiator screen: MIC by CLSI microbroth dilution with and without fluconazole
Assay type: cell-based, Aspergillus fumigatus
Details: for MIC: Aspergillus fumigatus, read-out: MIC (ug/mL) (−) Fluc; for MIC / MIC (ug/mL) (+) Fluc: 18 h; for MIC (ug/mL) (+) Fluc: with 32 μg/ml fluconazole, normoxia, GMM, 37 °C; for potency / potentiation of fluconazole (in words): structure-activity statements, fluconazole potentiator screen; for loss in potentiating the fluconazole: analogs of MBX-7591

Row | SMILES | MIC [µg/mL] | MIC (ug/mL) (+) Fluc [µg/mL] | potency / potentiation of fluconazole (in words) | loss in potentiating the fluconazole | increase in potentiation of fluconazole (morpholine series, para-fluorophenyl substitution) [fold]
1 | O=C(c1ccsc1)N1CCN(Cc2ccc(COc3ccncc3)cc2)CC1 [MBX-8030] | 1.9 | 0.50 | – | – | –
2 | O=C(c1cccc(F)c1)N1CCC(Cc2ccc(CN3CCOCC3)cc2)CC1 [MBX-8032] | 3.1 | 8.80 | – | – | –
3 | O=C(c1ccsc1)N1CCC(Cc2ccc(COc3cncnc3)cc2)CC1 [MBX-8033] | 39 | 27.00 | complete loss of activity | – | –
4 | O=C(c1ccsc1)N1CCC(Cc2ccc(COc3cccnc3)cc2)CC1 [MBX-8065] | > 19 | >19 | complete loss of activity | – | –
5 | O=C(c1ccsc1)N1CCC(c2ccc(COc3ccncc3)cc2)CC1 [MBX-8066] | 1.2 | 0.90 | – | – | –
6 | O=C(c1ccsc1)N1CCC(Cc2ccc(CNc3ccncc3)cc2)CC1 [MBX-8085] | > 19 | >19 | – | – | –
7 | O=C(c1ccsc1)N1CCC(Cc2ccc(COc3ccc4scnc4c3)cc2)CC1 [MBX-8086] | > 19 | >19 | – | – | –
8 | CCc1ccc(C(=O)N2CCC(Cc3ccc(COc4ccncc4)cc3)CC2)cc1 [MBX-8087] | 13 | >18 | – | – | –
9 | N#Cc1ccc(C(=O)N2CCC(Cc3ccc(COc4ccncc4)cc3)CC2)cc1 [MBX-8088] | 6.5 | 14.50 | antagonistic effect | – | –
10 | O=C(c1ccc(C(F)(F)F)nc1)N1CCC(Cc2ccc(COc3ccncc3)cc2)CC1 [MBX-8089] | > 22 | >20 | did not result in appreciable increase in potency | – | –
11 | O=C(N1CCC(Cc2ccc(COc3ccncc3)cc2)CC1)C12CC(C1)C2 [MBX-8090] | 18.8 | 13.30 | – | – | –
12 | O=C(c1ccccc1Cl)N1CCC(Cc2ccc(COc3ccncc3)cc2)CC1 [MBX-8091] | > 21 | >21 | – | – | –
13 | O=C(c1cccc(Cl)c1)N1CCC(Cc2ccc(COc3ccncc3)cc2)CC1 [MBX-8092] | 21 | >21 | – | – | –
14 | COC(=O)c1ccc(C(=O)N2CCC(Cc3ccc(COc4ccncc4)cc3)CC2)cc1 [MBX-8093] | > 22 | >20 | – | – | –
15 | CC(C)(C)c1ccc(C(=O)N2CCC(Cc3ccc(COc4ccncc4)cc3)CC2)cc1 [MBX-8094] | > 22 | >22 | – | – | –
16 | O=C(c1ccc(Cl)s1)N1CCC(Cc2ccc(COc3ccncc3)cc2)CC1 [MBX-8095] | 6.7 | 3.80 | – | more than 4 fold | –
17 | O=C(c1ccc2sccc2c1)N1CCC(Cc2ccc(COc3ccncc3)cc2)CC1 [MBX-8096] | > 22 | >22 | – | – | –
18 | O=C(c1ccc2scnc2c1)N1CCC(Cc2ccc(COc3ccncc3)cc2)CC1 [MBX-8097] | > 22 | >22 | – | – | –
19 | O=C(c1cncs1)N1CCC(Cc2ccc(COc3ccncc3)cc2)CC1 [MBX-8098] | 5.5 | 2.50 | – | more than 4 fold | –
20 | O=C(c1cscn1)N1CCC(Cc2ccc(COc3ccncc3)cc2)CC1 [MBX-8099] | 7.81 | 3.10 | – | more than 4 fold | –

Row | SMILES | MIC [µg/mL] | MIC (ug/mL) (+) Fluc [µg/mL] | potency / potentiation of fluconazole (in words) | loss in potentiating the fluconazole | increase in potentiation of fluconazole (morpholine series, para-fluorophenyl substitution) [fold]
21 | O=C(O)c1ccc(C(=O)N2CCC(Cc3ccc(COc4ccncc4)cc3)CC2)cc1 [MBX-8138] | > 21 | >21 | – | – | –
22 | CC(C)(O)c1ccc(C(=O)N2CCC(Cc3ccc(COc4ccncc4)cc3)CC2)cc1 [MBX-8139] | > 22 | >22 | – | – | –
23 | Cc1cnccc1OCc1ccc(CC2CCN(C(=O)c3ccsc3)CC2)cc1 [MBX-8140] | > 20 | >20 | complete loss of activity | – | –
24 | Cc1cc(OCc2ccc(CC3CCN(C(=O)c4ccsc4)CC3)cc2)ccn1 [MBX-8141] | > 20 | >20 | complete loss of activity | – | –
25 | COc1cc(OCc2ccc(CC3CCN(C(=O)c4ccsc4)CC3)cc2)ccn1 [MBX-8142] | > 21 | >21 | complete loss of activity | – | –
26 | Cc1ccc(S(=O)(=O)N2CCC3(CC2)CC(CCOc2ccncc2)CCO3)cn1 (stereo not drawn) [MBX-8143] | 10.8 | 3.81 | – | – | –
27 | Cc1ccc(S(=O)(=O)N2CCC3(CC2)CC(CCOc2ccncc2)CCO3)s1 (stereo not drawn) [MBX-8144] | 0.77 | 0.21 | – | – | –
28 | O=S(=O)(c1ccc(F)cc1)N1CCC(Cc2ccc(CN3CCOCC3)cc2)CC1 [MBX-8145] | 0.3 | 0.08 | – | – | 6
29 | O=S(=O)(c1ccc(Cl)cc1)N1CCC(Cc2ccc(CN3CCOCC3)cc2)CC1 [MBX-8146] | 0.28 | 0.14 | maintain activity in the morpholine series | – | –
30 | c1cc(OCc2ccc(CC3CCNCC3)cc2)ccn1 [MBX-8147] | > 14 | >14 | – | – | –
31 | O=C(c1ccsc1)N1CCC(Cc2ccc(COc3ccnc(O)c3)cc2)CC1 [MBX-8185] | > 20 | >20 | complete loss of activity | – | –
32 | O=S(=O)(c1ccc(C(F)(F)F)nc1)N1CCC(Cc2ccc(CN3CCOCC3)cc2)CC1 [MBX-8186] | 4.8 | 1.90 | maintain activity in the morpholine series | – | –
33 | O=S(=O)(c1cccc(Cl)c1)N1CCC(Cc2ccc(CN3CCOCC3)cc2)CC1 [MBX-8187] | 4.45 | 2.50 | – | – | –
34 | O=C(c1ccc(CC2CCN(S(=O)(=O)c3cccc(F)c3)CC2)cc1)N1CCOCC1 [MBX-8188] | > 22 | >22 | not tolerated | – | –
35 | O=S(=O)(c1cccc(F)c1)N1CCN(Cc2ccc(CN3CCOCC3)cc2)CC1 [MBX-8189] | > 21 | >21 | – | – | –
36 | CC1CN(Cc2ccc(CC3CCN(S(=O)(=O)c4cccc(F)c4)CC3)cc2)CC(C)O1 (stereo not drawn) [MBX-8190] | > 23 | >23 | not tolerated | – | –
37 | O=C(c1ccsc1)N1CCC(Cc2ccc(COc3cc[n+]([O-])cc3)cc2)CC1 [MBX-8191] | > 20 | >20 | complete loss of activity | – | –
38 | O=C(c1ccsc1)N1CCC(Cc2ccc(CO)cc2)CC1 [MBX-8192] | > 15.8 | >15.8 | – | – | –
39 | O=S(=O)(c1ccc(Cl)s1)N1CCC(Cc2ccc(CN3CCOCC3)cc2)CC1 [MBX-8193] | 0.63 | 0.18 | – | – | –
40 | O=C(c1ccsc1)N1CCC(Cc2ccc(COc3cnc4scnc4c3)cc2)CC1 [MBX-8219] | 2.81 | 2.81 | – | – | –

Row | SMILES | MIC [µg/mL] | MIC (ug/mL) (+) Fluc [µg/mL] | potency / potentiation of fluconazole (in words) | loss in potentiating the fluconazole | increase in potentiation of fluconazole (morpholine series, para-fluorophenyl substitution) [fold]
41 | NCc1ccc(OCc2ccc(CC3CCN(C(=O)c4ccsc4)CC3)cc2)cc1 [MBX-8220] | > 21 | >21 | – | – | –
42 | O=S(=O)(c1cccc(F)c1)N1CCC(Cc2ccc(CN3CC4CC(C3)O4)cc2)CC1 [MBX-8221] | > 17 | >22 | – | – | –
43 | O=S(=O)(c1cccc(F)c1)N1CCC(Cc2ccc(N3CCOCC3)cc2)CC1 [MBX-8222] | > 21 | >21 | – | – | –
44 | O=S(=O)(c1cc(F)cc(F)c1)N1CCC(Cc2ccc(CN3CCOCC3)cc2)CC1 [MBX-8223] | 12.6 | 3.50 | – | – | –
45 | O=S(=O)(c1ccc(C(F)(F)F)cc1)N1CCC(Cc2ccc(CN3CCOCC3)cc2)CC1 [MBX-8224] | 1.1 | 0.50 | – | – | –
46 | Nc1cc(OCc2ccc(CC3CCN(C(=O)c4ccsc4)CC3)cc2)ccn1 [MBX-8226] | 20 | 11.00 | – | – | –
47 | O=C(c1ccsc1)N1CCC(Cc2ccc(COc3ccncc3)cc2)C1 (stereo not drawn) [MBX-8240] | 4.73 | 2.37 | – | – | –
48 | O=S(=O)(c1ccsc1)N1CC2(CN(CCOc3ccncc3)C2)C1 [MBX-8241] | > 18 | >18 | – | – | –
49 | O=C1c2ccsc2CCN1Cc1ccc(COc2ccncc2)cc1 [MBX-8243] | 8.76 | 4.92 | – | – | –
50 | O=S(=O)(c1cccc(F)c1)N1CCC(Cc2ccc(CN3CC4(COC4)C3)cc2)CC1 [MBX-8244] | > 22 | >22 | – | – | –
51 | O=S(=O)(c1cccs1)N1CCC2(CC1)CC(CCN1CCOCC1)CCO2 (stereo not drawn) [MBX-8245] | > 20 | >20 | – | – | –
52 | O=S(=O)(c1cccs1)N1CCC2(CC1)CC(CCO)CCO2 (stereo not drawn) [MBX-8248] | > 17 | >17 | – | – | –
53 | O=C(c1csc(Cl)c1)N1CCN(Cc2ccc(CN3CCOCC3)cc2)CC1 [MBX-8249] | > 21 | 21.00 | – | – | –
54 | O=S(=O)(c1cccs1)N1CCC2(CC1)C[C@H](CCOc1ccncc1)CCO2 [MBX-8250] | 2.64 | 0.52 | – | – | –
55 | O=S(=O)(c1cccs1)N1CCC2(CC1)C[C@@H](CCOc1ccncc1)CCO2 [MBX-8251] | 5.28 | 1.32 | – | – | –
56 | O=S(=O)(c1ccccc1F)N1CCC(Cc2ccc(CN3CCOCC3)cc2)CC1 [MBX-8252] | 5.4 | 1.07 | – | – | –
57 | O=C(c1ccsc1)N1CCC(Cc2ccc(COc3ccnc(Cl)c3)cc2)CC1 [MBX-8253] | > 21 | >21 | – | – | –
58 | CC1CC(Cc2ccc(CN3CCOCC3)cc2)CCN1S(=O)(=O)c1cccc(F)c1 (stereo not drawn) [MBX-8281] | 7.03 | 1.40 | – | – | –
59 | O=S(=O)(c1ccc(F)cc1)N1CCC(Oc2ccc(CN3CCOCC3)cc2)CC1 [MBX-8282] | 5.43 | 1.36 | – | – | –
